Literature values in US9463180B2, “Treatment of molluscum contagiosum” (QUADEX PHARMACEUTICALS, LLC, priority 2013, dated 2016).

System: molluscum contagiosum
Details: small studies; applied 3 times per week, left on skin 6 to 10 hours

For CC(C)Cn1cnc2c(N)nc3ccccc3c21 [Imiquimod], the success rate is listed as “about 80%”.
